Values after ≈ are worked out from the molar mass of the structure shown. Active and inactive are the calls of the source. The rule behind the calls is not given here.

Assay [1] relates to Radical scavenging activity. Description: Antioxidant activity assessed as DPPH radical scavenging activity by DPPH stable radical assay.
The next assay concerns KB. Description: Cytotoxicity against human KB cells. The class given is functional, cell-based.
The nature of assay [2]: (§1) Cytotoxicity against human BC cells. The class given is functional, cell-based.
In the next assay the test system is NCI-H187. Description: Cytotoxicity against human NCI-H187 cells. Format: functional, cell-based.
A further assay deals with Vero. Description: Cytotoxicity against african green monkey Vero cells. The class given is cell-based. Conditions: Chlorocebus sabaeus.
In a further assay the test system is BC. The assay is described as §1. Format: functional, cell-based.
For assay [3], the target named is T1, Prostaglandin G/H synthase 2 (Mus musculus) (UniProt Q05769).
T1 sequence (whole entry): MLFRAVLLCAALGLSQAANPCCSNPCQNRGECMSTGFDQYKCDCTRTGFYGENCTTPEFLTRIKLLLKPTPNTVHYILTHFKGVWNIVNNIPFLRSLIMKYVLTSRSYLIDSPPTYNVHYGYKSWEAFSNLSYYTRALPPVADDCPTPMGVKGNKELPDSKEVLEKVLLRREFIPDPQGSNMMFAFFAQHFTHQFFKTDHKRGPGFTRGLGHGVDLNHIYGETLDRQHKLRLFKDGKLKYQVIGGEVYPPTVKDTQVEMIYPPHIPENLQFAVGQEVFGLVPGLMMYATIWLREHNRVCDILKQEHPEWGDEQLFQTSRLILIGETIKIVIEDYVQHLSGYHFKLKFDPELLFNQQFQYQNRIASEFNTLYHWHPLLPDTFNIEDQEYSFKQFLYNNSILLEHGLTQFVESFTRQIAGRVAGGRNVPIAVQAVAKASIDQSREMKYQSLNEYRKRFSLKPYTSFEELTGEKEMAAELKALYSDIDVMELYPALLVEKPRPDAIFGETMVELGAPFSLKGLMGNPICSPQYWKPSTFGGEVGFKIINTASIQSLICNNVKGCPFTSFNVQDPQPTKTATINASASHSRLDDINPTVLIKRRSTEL
Description: (§2) Inhibition of COX2 in mouse lung fibroblast assessed as PGE2 production by radioimmunoassay.

Assay [4] has as its target T2, Prostaglandin G/H synthase 2 (Mus musculus, UniProt Q05769).
T2 sequence (Q05769 whole entry): T1 sequence (whole entry)
The assay is described as §2.

With `CC(C)=CCC/C(C)=C/Cc1c(O)cc2c(c1O)C(=O)C[C@@H](c1ccc(O)c(O)c1)O2` [NYMPHAEOL A], the IC50 stood at 14 µM in assay [1]; 4.6 µg/mL (≈ 10.8 µM) in the assay on KB; 2.7 µg/mL (≈ 6.36 µM) in assay [2]; 1.5 µg/mL (≈ 3.53 µM) in the assay with NCI-H187; 3.8 µg/mL (≈ 8.95 µM) in the assay on Vero.

For the molecule `CC(C)=CCCC1(C)C=Cc2c([C@@H]3CC(=O)c4c(cc(O)c(CC=C(C)C)c4O)O3)ccc(O)c2O1` (some centres undefined), the outcome (in the assay with KB; in the assay with BC; with NCI-H187; in assay [3]) was inactive.

For the molecule `CC(C)=CCC/C(C)=C/Cc1c([C@@H]2CC(=O)c3c(O)cc(O)cc3O2)ccc(O)c1O` [NYMPHAEOL B], the IC50 in assay [1] is 13 µM; in assay [4], 8.72 µM. For the same molecule, the outcome in the assay on KB, with BC and with NCI-H187 was inactive.

Turning to `CC1=CC(=O)CC(C)(C)[C@@]1(O)/C=C/[C@@H](C)O`, the result (in the assay on KB; in the assay on BC; with NCI-H187; in assay [3]) was inactive.

Turning to `C=C(C)C(O)CC/C(C)=C/Cc1c(O)cc2c(c1O)C(=O)C[C@@H](c1ccc(O)c(O)c1)O2` (some centres undefined) [TANARIFLAVANONE D], the IC50 in assay [1] came out at 20 µM; in assay [2] it was 6.5 µg/mL (≈ 14.8 µM); in the assay with Vero it was 19.5 µg/mL (≈ 44.3 µM). Further, the outcome in the assay on NCI-H187 was inactive.

In the case of `CC1=CC(=O)CC(C)(C)[C@@]1(O)CC[C@@H](C)O`, the result (in the assay with KB; in the assay on BC; with NCI-H187; in assay [3]) was inactive.

Take `COc1cc(O)c2c(c1)O[C@H](c1ccc(OC)c(O)c1C/C=C(\C)CCC=C(C)C)CC2=O`: the result (with KB; in the assay on BC; in the assay with NCI-H187; in assay [3]) was inactive.

With `COc1ccc([C@@H]2CC(=O)c3c(cc(OC)c(CC=C(C)C)c3O)O2)c(C/C=C(\C)CCC=C(C)C)c1O`, in assay [1], the IC50 worked out at 413 µM. Also, the result (in the assay with KB; in the assay with BC; in the assay with NCI-H187; in assay [3]) was inactive.

In the case of `Cc1cc(C(C)(C)C)c(O)c(C(C)(C)C)c1` [BUTYLATED HYDROXYTOLUENE], the IC50 in assay [1] was 30 µM.

As to `CC(C)=CCC/C(C)=C/Cc1c([C@@H]2CC(=O)c3c(cc(O)c(CC=C(C)C)c3O)O2)ccc(O)c1O` [NYMPHAEOL C], the half-maximal inhibitory concentration (IC50) in assay [1] came to 15 µM. Besides, the result (in the assay with KB; in the assay with BC; in the assay on NCI-H187; in assay [3]) was inactive.

`COc1cc2c(c(O)c1CC=C(C)C)C(=O)C[C@@H](c1ccc(OC)c(OC)c1C/C=C(\C)CCC=C(C)C)O2`: in assay [1], the concentration for half-maximal inhibition (IC50) was found to be 599 µM. Besides, the result (in the assay on KB; in the assay with BC; with NCI-H187; in assay [3]) was inactive.

Regarding `C=C(C)C(O)Cc1c(O)cc2c(c1O)C(=O)C[C@@H](c1ccc(O)c(O)c1C/C=C(\C)CCC=C(C)C)O2` (some centres undefined) [TANARIFLAVANONE C], the half-maximal inhibitory concentration (IC50) in assay [1] stood at 33 µM. Moreover, the outcome (with KB; in the assay with BC; with NCI-H187; in assay [3]) was inactive.

With `COc1cc(O)c2c(c1)O[C@H](c1ccc(OC)c(OC)c1C/C=C(\C)CCC=C(C)C)CC2=O`, the outcome (with KB; with BC; in the assay on NCI-H187; in assay [3]) was inactive.

On to `COc1ccc([C@@H]2CC(=O)c3c(cc(OC)c(C/C=C(\C)CCC=C(C)C)c3O)O2)cc1OC`, for which the result (with KB; in the assay on BC; in the assay on NCI-H187; in assay [3]) was inactive.
